pKi: −log10 of the molar value. Where two headings read alike, the source gives them in different places.
Target: human μ-opiate receptor (Homo sapiens, UniProt P35372)
Assay: Affinity for the human μ-opiate receptor ([3H]-naloxone displacement, SPA, CHO-K1 membrane preparation)
Type: binding
Settings: for inhibition at 1 µM: read-out: μ-Opioid receptor, % inhibition [1 μM]; for pKi: read-out: μ-Opioid receptor, Ki

Sequence of human μ-opiate receptor (P35372 whole entry): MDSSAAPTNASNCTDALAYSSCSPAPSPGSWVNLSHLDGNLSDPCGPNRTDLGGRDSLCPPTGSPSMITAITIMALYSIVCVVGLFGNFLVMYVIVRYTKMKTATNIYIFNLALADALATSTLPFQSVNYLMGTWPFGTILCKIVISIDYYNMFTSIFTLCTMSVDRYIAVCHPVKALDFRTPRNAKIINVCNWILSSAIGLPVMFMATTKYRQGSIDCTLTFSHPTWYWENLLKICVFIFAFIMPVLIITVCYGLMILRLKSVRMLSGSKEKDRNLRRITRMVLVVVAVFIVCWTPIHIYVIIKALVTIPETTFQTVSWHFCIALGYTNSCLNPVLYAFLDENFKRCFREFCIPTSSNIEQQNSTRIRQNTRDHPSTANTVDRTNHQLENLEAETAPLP

Row | Compound | inhibition at 1 µM [%] | pKi | μ-Opioid receptor, % inhibition [1 μM] [%] | μ-Opioid receptor, % inhibition [1 μM] (1 µM) [%]
1 | CN(C)C(c1ccc(F)cc1)C1CCC(CNC(=O)Cc2cccs2)CC1 (stereo not shown) [compound 359, N-{4-[dimethylamino-(4-fluoro-phenyl)-methyl]-cyclohexylmethyl}-2-thiophen-2-yl-acetamide] | 86 |  |  | 
2 | CN(C)C(c1ccccc1)C1CCC(NC(=O)c2ccccc2Br)CC1 (stereo not shown) [compound 286, 2-bromo-N-[4-(dimethylamino-phenyl-methyl)-cyclohexyl]-benzamide] | 71 | 7.27 |  | 
3 | COc1cc(C(=O)NC2CCC(C(c3cccs3)N(C)C)CC2)cc(OC)c1OC (stereo not shown) [compound 212, N-[4-(dimethylamino-thiophen-2-yl-methyl)-cyclohexyl]-3,4,5-trimethoxy-benzamide] | 91 | 7.72 |  | 
4 | CN(C)C(c1ccccc1)C1CCC(NC(=O)c2cccc3ccccc23)CC1 (stereo not shown) [compound 226, naphthyl-1-carboxylic acid [4-(dimethylamino-phenyl-methyl)-cyclohexyl]-amide] |  | 7.24 | 87 | 
5 | Cc1cc(C(=O)NC2CCC(C(c3cccc(F)c3)N(C)C)CC2)c(C)o1 (stereo not shown) [compound 265, 2,5-dimethyl-furan-3-carboxylic acid {4-[dimethylamino-(3-fluoro-phenyl)-methyl]-cyclohexyl}-amide] | 78 | 6.85 |  | 
6 | CN(C)C(c1ccccc1)C1CCC(CCNC(=O)c2ccc(C#N)cc2)CC1 (stereo not shown) [compound 421, 4-cyano-N-{2-[4-(dimethylamino-phenyl-methyl)-cyclohexyl]-ethyl}-benzamide] | 80 | 7.04 |  | 
7 | CN(C)C(c1cccs1)C1CCC(CCNC(=O)c2ccc(F)c(F)c2)CC1 (stereo not shown) [compound 446, N-{2-[4-(dimethylamino-thiophen-2-yl-methyl)-cyclohexyl]-ethyl}-3,4-difluoro-benzamide] | 99 | 8.19 |  | 
8 | Cc1nc(-c2ccccc2)sc1C(=O)NC1CCC(C(c2cccc(F)c2)N(C)C)CC1 (stereo not shown) [compound 256, 4-methyl-2-phenyl-thiazole-5-carboxylic acid {4-[dimethylamino-(3-fluoro-phenyl)-methyl]-cyclohexyl}-amide] | 80 | 7.10 |  | 
9 | CN(C)C(CCc1ccccc1)C1CCC(NC(=O)c2ccc(F)c(C(F)(F)F)c2)CC1 (single isomer, unassigned) [compound 210, N-[4-(1-dimethylamino-3-phenyl-propyl)-cyclohexyl]-4-fluoro-3-trifluoromethyl-benzamide] | 92 | 7.62 |  | 
10 | CN(C)C(c1ccccc1)C1CCC(NC(=O)COCc2ccccc2)CC1 (stereo not shown) [compound 254, 2-benzyloxy-N-[4-(dimethylamino-phenyl-methyl)-cyclohexyl]-acetamide] | 80 | 7.25 |  | 
11 | COc1cccc(CC(=O)NCC2CCC(C(c3ccc(Cl)cc3)N(C)C)CC2)c1 (stereo not shown) [compound 320, N-{4-[(4-chloro-phenyl)-dimethylamino-methyl]-cyclohexylmethyl}-2-(3-methoxy-phenyl)-acetamide] | 95 | 7.55 |  | 
12 | CC(Oc1ccccc1)C(=O)NCC1CCC(C(c2ccc(Cl)cc2)N(C)C)CC1 (stereo not shown) [compound 391, N-{4-[(4-chloro-phenyl)-dimethylamino-methyl]-cyclohexylmethyl}-2-phenoxy-propionamide] | 81 | 7.59 |  | 
13 | COc1ccc(CN(C(C)=O)C2CCC(C(c3ccccc3)N(C)C)CC2)cc1 (stereo not shown) [compound 176, N-(4-((dimethylamino)(phenyl)methyl)cyclohexyl)-N-(4-methoxybenzyl)-acetamide] | 86 | 7.72 |  | 
14 | CN(C)C(c1ccccc1)C1CCC(NC(=O)c2ccc(Cl)c(Cl)c2)CC1 (stereo not shown) [compound 189, 3,4-dichloro-N-[4-(dimethylamino-phenyl-methyl)-cyclohexyl]-benzamide] | 99 | 7.96 |  | 
15 | CC(=O)N(C(C)Cc1c[nH]c2ccccc12)C1CCC(C(c2ccccc2)N(C)C)CC1 (stereo not shown) [compound 177] |  | 8.14 |  | 86
16 | CN(C)C(c1ccccc1)C1CCC(CNC(=O)c2csc(-c3ccccc3)n2)CC1 (stereo not shown) [compound 335, 2-phenyl-thiazole-4-carboxylic acid [4-(dimethylamino-phenyl-methyl)-cyclohexylmethyl]-amide] | 92 | 7.48 |  | 
17 | CCC(C(=O)NC1CCC(C(c2cccc(F)c2)N(C)C)CC1)c1ccccc1 (stereo not shown) [compound 273, N-{4-[dimethylamino-(3-fluoro-phenyl)-methyl]-cyclohexyl}-2-phenyl-butyramide] | 75 | 7.09 |  | 
18 | COc1cccc(CC(=O)NCCC2CCC(C(c3cccc(F)c3)N(C)C)CC2)c1 (stereo not shown) [compound 453, N-(2-{4-[dimethylamino-(3-fluoro-phenyl)-methyl]-cyclohexyl}-ethyl)-2-(3-methoxy-phenyl)-acetamide] | 83 | 7.37 |  | 

Row | Compound | inhibition at 1 µM [%] | pKi | μ-Opioid receptor, % inhibition [1 μM] [%] | μ-Opioid receptor, % inhibition [1 μM] (1 µM) [%]
19 | CN(C)C(c1cccs1)C1CCC(CNC(=O)c2ccccc2Br)CC1 (stereo not shown) [compound 296, 2-bromo-N-[4-(dimethylamino-thiophen-2-yl-methyl)-cyclohexylmethyl]-benzamide] | 100 | 9.52 |  | 
20 | COc1c(C(=O)NCC2CCC(C(c3ccccc3)N(C)C)CC2)csc1Cl (stereo not shown) [compound 293, 5-chloro-4-methoxy-thiophene-3-carboxylic acid [4-(dimethylamino-phenyl-methyl)-cyclohexylmethyl]-amide] | 102 | 8.34 |  | 
21 | CN(C)C(c1ccccc1)C1CCC(CCNC(=O)c2csc(-c3ccc4c(c3)CCO4)n2)CC1 (stereo not shown) [compound 468, 2-(2,3-dihydro-benzofuran-5-yl)-thiazole-4-carboxylic acid {2-[4-(dimethylamino-phenyl-methyl)-cyclohexyl]-ethyl}-amide] | 83 | 6.80 |  | 
22 | Cc1ccc(Oc2ncccc2C(=O)NCC2CCC(C(c3cccc(F)c3)N(C)C)CC2)cc1 (stereo not shown) [compound 337, N-{4-[dimethylamino-(3-fluoro-phenyl)-methyl]-cyclohexylmethyl}-2-p-tolyloxy-nicotinamide] | 92 |  |  | 
23 | Cc1cccc(C(=O)NCCC2CCC(C(c3cccs3)N(C)C)CC2)c1 (stereo not shown) [compound 430, N-{2-[4-(dimethylamino-thiophen-2-yl-methyl)-cyclohexyl]-ethyl}-3-methyl-benzamide] | 101 | 8.36 |  | 
24 | CN(C)C(c1ccccc1)C1CCC(CNC(=O)C2(c3ccc(Cl)cc3)CCCC2)CC1 (stereo not shown) [compound 318, 1-(4-chloro-phenyl)-cyclopentane-carboxylic acid [4-(dimethylamino-phenyl-methyl)-cyclohexylmethyl]-amide] | 95 | 7.64 |  | 
25 | CN(C)C(c1ccc(F)cc1)C1CCC(NC(=O)c2ccc(F)c(Cl)c2)CC1 (stereo not shown) [compound 280, 3-chloro-N-{4-[dimethylamino-(4-fluoro-phenyl)-methyl]-cyclohexyl}-4-fluoro-benzamide] | 73 | 6.51 |  | 
26 | CN(C)C(c1ccc(Cl)cc1)C1CCC(CNC(=O)c2ccccc2Br)CC1 (stereo not shown) [compound 394, 2-bromo-N-{4-[(4-chloro-phenyl)-dimethylamino-methyl]-cyclohexylmethyl}-benzamide] | 79 | 7.32 |  | 
27 | CN(C)C(c1ccccc1)C1CCC(CNC(=O)Cc2ccccc2)CC1 (stereo not shown) [compound 306, N-[4-(dimethylamino-phenyl-methyl)-cyclohexylmethyl]-2-phenyl-acetamide] | 98 | 8.00 |  | 
28 | COc1c(C(=O)NCC2CCC(C(c3cccc(F)c3)N(C)C)CC2)csc1Cl (stereo not shown) [compound 303, 5-chloro-4-methoxy-thiophene-3-carboxylic acid {4-[dimethylamino-(3-fluoro-phenyl)-methyl]-cyclohexylmethyl}-amide] | 99 | 7.72 |  | 
29 | CN(C)C(c1cccs1)C1CCC(NC(=O)c2cc(Cl)cc(Cl)c2)CC1 (stereo not shown) [compound 194, 3,5-dichloro-N-[4-(dimethylamino-thiophen-2-yl-methyl)-cyclohexyl]-benzamide] | 96 | 8.28 |  | 
30 | CN(C)C(c1ccc(Cl)cc1)C1CCC(CCNC(=O)c2ccccc2Cl)CC1 (stereo not shown) [compound 403, 2-chloro-N-(2-{4-[(4-chloro-phenyl)-dimethylamino-methyl]-cyclohexyl}-ethyl)-benzamide] | 81 | 7.13 |  | 
31 | CN(C)C(c1ccccc1)C1CCC(CCNC(=O)Cc2ccccc2)CC1 (stereo not shown) [compound 451, N-{2-[4-(dimethylamino-phenyl-methyl)-cyclohexyl]-ethyl}-2-phenyl-acetamide] | 92 | 7.62 |  | 
32 | CSc1ncccc1C(=O)NC1CCC(C(c2cccs2)N(C)C)CC1 (stereo not shown) [compound 208, N-[4-(dimethylamino-thiophen-2-yl-methyl)-cyclohexyl]-2-methylsulfanyl-nicotinamide] | 92 | 6.89 |  | 
33 | CCSc1ncccc1C(=O)NCC1CCC(C(c2cccc(F)c2)N(C)C)CC1 (stereo not shown) [compound 388, N-{4-[dimethylamino-(3-fluoro-phenyl)-methyl]-cyclohexylmethyl}-2-ethylsulfanyl-nicotinamide] | 81 | 7.44 |  | 
34 | CN(C)C(c1ccc(F)cc1)C1CCC(NC(=O)c2cccc(Br)c2)CC1 (stereo not shown) [compound 263, 3-bromo-N-{4-[dimethylamino-(4-fluoro-phenyl)-methyl]-cyclohexyl}-benzamide] | 78 | 7.55 |  | 
35 | CN(C)C(c1cccc(F)c1)C1CCC(NC(=O)c2cc(Cl)cc(Cl)c2)CC1 (stereo not shown) [compound 243, 3,5-dichloro-N-{4-[dimethylamino-(3-fluoro-phenyl)-methyl]-cyclohexyl}-benzamide] | 82 | 7.60 |  | 
36 | Cc1oc(-c2ccccc2)cc1C(=O)NC1CCC(C(c2ccccc2)N(C)C)CC1 (stereo not shown) [compound 214, 2-methyl-5-phenyl-furan-3-carboxylic acid [4-(dimethylamino-phenyl-methyl)-cyclohexyl]-amide] | 91 | 7.55 |  | 

— patent US8058475B2, “Substituted cyclohexylmethyl compounds” (Gruenenthal GmbH, priority 2005, dated 2011)
